Values of other authors, collected in article PMC7134594 (Chemistry & Biology, 2004).

Test system: SARS-CoV

| SMILES | inhibiting replication of SARS-CoV in vitro | other results |
| --- | --- | --- |
| CC(C)(C)NC(=O)[C@@H]1C[C@@H]2CCCC[C@@H]2CN1C[C@@H](O)[C@H](Cc1ccccc1)NC(=O)[C@H](CC(N)=O)NC(=O)c1ccc2ccccc2n1 [saquinavir] | ineffective | – |
| NC(=O)c1ncn([C@@H]2O[C@H](CO)[C@@H](O)[C@H]2O)n1 [Ribavirin, ribavirin] | – | anti-SARS-CoV activity in vitro: anti-SARS-CoV activity in vitro, but at concentrations that are cytotoxic |
| CSC[C@H](NC(=O)COc1cccc2cnccc12)C(=O)N[C@@H](Cc1ccccc1)[C@H](O)C(=O)N1CSC[C@H]1C(=O)NC(C)(C)C [KNI-272] | ineffective | – |
| CC(C)(C)NC(=O)[C@@H]1CN(Cc2cccnc2)CCN1C[C@@H](O)C[C@@H](Cc1ccccc1)C(=O)N[C@H]1c2ccccc2C[C@H]1O [indinavir] | ineffective | – |
| Cc1c(O)cccc1C(=O)N[C@@H](CSc1ccccc1)[C@H](O)CN1C[C@H]2CCCC[C@H]2C[C@H]1C(=O)NC(C)(C)C [nelfinavir] | – | EC50 (read-out: EC50, inhibition of SARS-CoV replication): 48 nM |
| CC(C)c1nc(CN(C)C(=O)N[C@H](C(=O)N[C@@H](Cc2ccccc2)C[C@H](O)[C@H](Cc2ccccc2)NC(=O)OCc2cncs2)C(C)C)cs1 [ritonavir] | ineffective | – |
| Cc1cccc(C)c1OCC(=O)N[C@@H](Cc1ccccc1)[C@@H](O)C[C@H](Cc1ccccc1)NC(=O)[C@H](C(C)C)N1CCCNC1=O [lopinavir] | ineffective | – |
